# According to ChEMBL document CHEMBL1201862, “PubChem BioAssay data set” (2004):
# The source made the active and inactive calls.
# Key:
# HeLa = test: viability loss in HeLa cells – cell-based, 24 h, cherry-picked samples, cytotoxicity control, dose response (AID 504726); format: functional; settings: Homo sapiens;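 also: potency for cytotoxicity as loss of luminescence signal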
# [1] = target: T1, Eukaryotic translation initiation factor 2-alpha kinase 3 (Homo sapiens, UniProt Q9NZJ5); test: Dose response cell-based high-throughput screening assay to measure PERK inhibition. [Related pubchem assays: 1416 ]; format: functional
# T1 sequence (Q9NZJ5 whole entry): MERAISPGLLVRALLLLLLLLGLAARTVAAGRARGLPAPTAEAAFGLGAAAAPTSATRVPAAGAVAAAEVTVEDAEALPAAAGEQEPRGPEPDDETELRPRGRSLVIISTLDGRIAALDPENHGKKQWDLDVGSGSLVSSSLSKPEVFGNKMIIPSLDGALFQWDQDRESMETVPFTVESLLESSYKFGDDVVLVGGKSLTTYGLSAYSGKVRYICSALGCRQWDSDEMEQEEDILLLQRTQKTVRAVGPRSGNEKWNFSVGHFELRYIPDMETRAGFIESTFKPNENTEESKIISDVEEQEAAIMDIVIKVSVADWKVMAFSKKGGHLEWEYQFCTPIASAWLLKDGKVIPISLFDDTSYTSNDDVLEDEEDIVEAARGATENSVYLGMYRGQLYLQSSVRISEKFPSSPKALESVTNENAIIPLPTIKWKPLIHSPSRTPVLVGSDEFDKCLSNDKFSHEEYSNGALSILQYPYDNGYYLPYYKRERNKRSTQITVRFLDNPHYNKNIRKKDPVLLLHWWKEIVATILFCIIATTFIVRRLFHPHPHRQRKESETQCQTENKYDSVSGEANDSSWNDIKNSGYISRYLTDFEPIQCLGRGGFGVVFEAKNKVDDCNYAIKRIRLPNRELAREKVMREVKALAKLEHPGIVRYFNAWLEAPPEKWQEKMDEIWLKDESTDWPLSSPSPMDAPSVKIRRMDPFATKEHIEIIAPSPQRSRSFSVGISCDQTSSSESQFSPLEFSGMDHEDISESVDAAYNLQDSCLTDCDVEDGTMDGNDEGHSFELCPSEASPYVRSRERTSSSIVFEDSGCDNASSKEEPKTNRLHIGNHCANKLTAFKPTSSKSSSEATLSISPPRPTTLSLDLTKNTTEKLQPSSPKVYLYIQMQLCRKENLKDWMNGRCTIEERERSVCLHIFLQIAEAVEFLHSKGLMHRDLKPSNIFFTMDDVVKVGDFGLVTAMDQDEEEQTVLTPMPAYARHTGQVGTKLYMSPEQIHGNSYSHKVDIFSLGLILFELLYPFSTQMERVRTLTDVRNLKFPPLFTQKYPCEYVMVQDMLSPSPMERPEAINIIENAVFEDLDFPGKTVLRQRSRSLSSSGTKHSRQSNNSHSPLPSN
# [2] = target: T1, Eukaryotic translation initiation factor 2-alpha kinase 3; test: Counterscreen assay for PERK inhibitors: Dose response cell-based high throughput screening assay to measure inhibition of PERK at 6 hours. [Related pubchem assays: 1522, 1416 ]; format: functional
# [3] = target: Mothers against decapentaplegic homolog 3 (Homo sapiens, UniProt P84022); test: blockers of Smad3 complex formation in lysate – cell lysate, secondary confirmation, chemiluminescent ELISA, HEK293 lysate, dose response (AID 1058); format: functional
# Cytochrome P450 2C9 = Cytochrome P450 2C9 (Homo sapiens, UniProt P11712)
# Cytochrome P450 2C19 = Cytochrome P450 2C19 (Homo sapiens, UniProt P33261); test: Cytochrome panel assay with activity outcomes. Panel member name: p450-cyp2c19 Compounds with AC50 equal or less than 10 uM are considered active; format: functional; settings: read-out: AC50
# [4] = target: T2, Alkaline phosphatase, tissue-nonspecific isozyme (Homo sapiens, UniProt P05186)
# T2 sequence (P05186 whole entry): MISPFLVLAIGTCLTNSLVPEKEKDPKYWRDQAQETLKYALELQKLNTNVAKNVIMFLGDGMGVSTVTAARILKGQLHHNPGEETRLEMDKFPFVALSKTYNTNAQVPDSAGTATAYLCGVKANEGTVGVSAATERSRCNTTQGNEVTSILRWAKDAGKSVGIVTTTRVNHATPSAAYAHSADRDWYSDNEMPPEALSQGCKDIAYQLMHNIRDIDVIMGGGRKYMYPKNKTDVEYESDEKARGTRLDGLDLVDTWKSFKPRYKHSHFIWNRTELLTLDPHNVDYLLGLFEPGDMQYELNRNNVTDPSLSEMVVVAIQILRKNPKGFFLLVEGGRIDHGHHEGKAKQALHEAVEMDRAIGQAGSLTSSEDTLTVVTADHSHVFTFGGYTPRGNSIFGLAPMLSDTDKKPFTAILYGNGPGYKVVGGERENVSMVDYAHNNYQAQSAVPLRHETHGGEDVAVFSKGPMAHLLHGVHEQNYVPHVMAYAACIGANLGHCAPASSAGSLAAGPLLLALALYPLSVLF
# [5] = A Cell Based Secondary Assay To Explore Cytotoxicity of Compounds that Sensitize Mycobacterium Tuberculosis to Beta-Lactam Antibiotics.; format: functional
# [6] = cytotoxicity in MITF-independent A375 cells – cell-based, CellTiter-Glo luminescence, dry powder, set 4, counter-screen for MITF inhibitor project, dose response (AID 624364); format: functional; settings: A-375;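 also: A375 melanoma cells are MITF independent so this is a counter screen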
# [7] = target: T3, Microphthalmia-associated transcription factor (Homo sapiens, UniProt O75030); test: reducers of TRPM1 reporter luminescence, concentration series – cell-based, SK-MEL-5, cherry-picked, set 3, MITF inhibitor project, dose response (AID 493073); format: functional;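 also: SK-MEL-5 melanoma cells with luciferase driven by the MITF target TRPM1 promoter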
# T3 sequence (O75030 whole entry): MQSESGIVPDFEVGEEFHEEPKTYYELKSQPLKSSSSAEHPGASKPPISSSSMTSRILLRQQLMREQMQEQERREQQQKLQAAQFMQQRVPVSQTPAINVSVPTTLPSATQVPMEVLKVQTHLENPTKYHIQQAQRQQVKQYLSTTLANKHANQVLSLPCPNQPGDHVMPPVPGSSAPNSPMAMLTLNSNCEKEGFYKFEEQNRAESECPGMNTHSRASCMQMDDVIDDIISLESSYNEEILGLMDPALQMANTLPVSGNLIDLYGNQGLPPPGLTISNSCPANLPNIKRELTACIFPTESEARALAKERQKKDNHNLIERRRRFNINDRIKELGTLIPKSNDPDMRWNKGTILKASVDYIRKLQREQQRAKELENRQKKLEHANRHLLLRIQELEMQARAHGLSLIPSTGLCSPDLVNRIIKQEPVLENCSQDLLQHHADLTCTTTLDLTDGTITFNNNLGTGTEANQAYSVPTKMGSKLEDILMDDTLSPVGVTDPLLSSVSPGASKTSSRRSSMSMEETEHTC
# [8] = Luminescence Cell-Based Dose Retest to Confirm Inhibitors of Cancer Stem Cells. [Related pubchem assays (depositor defined):AID2717, AID2721]; format: functional; settings: Homo sapiens
# [9] = viability loss in MITF-independent A375 cells – cell-based, CellTiter-Glo luminescence, dry powder, set 2, counter-screen for MITF inhibitor project, dose response (AID 624489); format: functional; settings: A-375;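 also: actives are compounds lowering A375 viability meaning general cytotoxicity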
# [10] = test system: Streptococcus sp. 'group A'; test: Streptococcus pyogenes SK(-)GAS viability under kanamycin – luminescence, BacTiterGlo, confirmation, counter-screen for streptokinase expression inhibitor project, dose response (AID 1900); format: functional, organism-based
# Hexokinase HKDC1 = target: T4, Hexokinase HKDC1 (Homo sapiens, UniProt Q2TB90); test: inhibition of HKDC1 glucose phosphorylation – biochemical, W721R variant, dose response (AID 504729); format: functional
# T4 sequence (Q2TB90 whole entry): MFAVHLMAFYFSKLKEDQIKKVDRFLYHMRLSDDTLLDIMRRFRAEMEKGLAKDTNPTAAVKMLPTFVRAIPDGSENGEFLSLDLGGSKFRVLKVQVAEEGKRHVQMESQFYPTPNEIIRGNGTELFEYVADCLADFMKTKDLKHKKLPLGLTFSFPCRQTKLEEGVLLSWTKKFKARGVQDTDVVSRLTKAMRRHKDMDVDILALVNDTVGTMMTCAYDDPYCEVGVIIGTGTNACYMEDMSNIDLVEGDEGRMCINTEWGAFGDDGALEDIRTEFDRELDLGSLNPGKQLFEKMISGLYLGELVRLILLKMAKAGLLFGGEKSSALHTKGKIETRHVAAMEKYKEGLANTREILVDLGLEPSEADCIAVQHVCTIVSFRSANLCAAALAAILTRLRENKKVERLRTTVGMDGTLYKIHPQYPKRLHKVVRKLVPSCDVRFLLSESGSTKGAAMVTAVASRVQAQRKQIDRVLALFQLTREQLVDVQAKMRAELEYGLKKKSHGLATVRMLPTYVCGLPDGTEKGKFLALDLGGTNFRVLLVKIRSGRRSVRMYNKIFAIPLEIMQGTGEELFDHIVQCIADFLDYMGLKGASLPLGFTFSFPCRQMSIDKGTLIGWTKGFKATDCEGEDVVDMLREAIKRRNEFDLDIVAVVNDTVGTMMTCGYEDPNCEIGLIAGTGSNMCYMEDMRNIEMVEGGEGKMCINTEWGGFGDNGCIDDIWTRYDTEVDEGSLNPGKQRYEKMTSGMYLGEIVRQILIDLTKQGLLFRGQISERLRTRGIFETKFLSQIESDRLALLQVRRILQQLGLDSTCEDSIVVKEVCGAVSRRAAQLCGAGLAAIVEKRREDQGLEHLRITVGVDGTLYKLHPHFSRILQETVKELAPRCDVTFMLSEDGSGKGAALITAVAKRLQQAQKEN
# Streptococcus = test: GAS UMAA2166 growth inhibition – luminescence, BacTiterGlo, counter-screen for streptokinase expression inhibitor project, dose response (AID 1915); format: functional, organism-based;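 also: potency for reduction of bacterial viability or growth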
# Streptokinase A = target: T5, Streptokinase A (Streptococcus pyogenes serotype M1, UniProt P10520); test: viability-normalized secreted streptokinase activity reduction – plasminogen activation absorbance, OD405, dose response (AID 1914); format: functional, Streptococcus pyogenes M1 GAS;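 also: secreted streptokinase activity via plasminogen activation per viability signal from cell pellet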
# T5 sequence (P10520 whole entry): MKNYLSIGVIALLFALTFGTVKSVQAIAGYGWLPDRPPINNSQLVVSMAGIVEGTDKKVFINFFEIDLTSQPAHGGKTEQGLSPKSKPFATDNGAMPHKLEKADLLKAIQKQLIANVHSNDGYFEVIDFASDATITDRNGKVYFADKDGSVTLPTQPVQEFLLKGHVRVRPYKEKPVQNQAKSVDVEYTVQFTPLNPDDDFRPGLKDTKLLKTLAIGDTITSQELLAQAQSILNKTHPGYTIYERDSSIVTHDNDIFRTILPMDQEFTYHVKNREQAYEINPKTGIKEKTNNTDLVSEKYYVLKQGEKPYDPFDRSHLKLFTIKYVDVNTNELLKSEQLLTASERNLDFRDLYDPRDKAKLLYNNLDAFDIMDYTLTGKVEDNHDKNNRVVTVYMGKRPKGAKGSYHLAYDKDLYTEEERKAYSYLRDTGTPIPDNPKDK
# Mothers against decapentaplegic homolog 3, sequence (P84022 whole entry): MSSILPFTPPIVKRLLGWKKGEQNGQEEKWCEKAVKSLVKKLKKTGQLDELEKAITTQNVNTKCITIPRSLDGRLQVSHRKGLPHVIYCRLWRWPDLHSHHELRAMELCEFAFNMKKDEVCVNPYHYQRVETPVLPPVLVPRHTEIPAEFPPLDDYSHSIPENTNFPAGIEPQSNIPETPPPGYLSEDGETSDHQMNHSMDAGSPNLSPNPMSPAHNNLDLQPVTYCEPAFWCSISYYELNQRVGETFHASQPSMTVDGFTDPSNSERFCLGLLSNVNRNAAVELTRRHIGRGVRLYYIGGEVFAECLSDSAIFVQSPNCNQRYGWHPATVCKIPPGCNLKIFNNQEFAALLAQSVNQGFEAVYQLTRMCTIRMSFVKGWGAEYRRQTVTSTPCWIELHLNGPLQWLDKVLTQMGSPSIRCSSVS
# Cytochrome P450 2C9, sequence (P11712 whole entry): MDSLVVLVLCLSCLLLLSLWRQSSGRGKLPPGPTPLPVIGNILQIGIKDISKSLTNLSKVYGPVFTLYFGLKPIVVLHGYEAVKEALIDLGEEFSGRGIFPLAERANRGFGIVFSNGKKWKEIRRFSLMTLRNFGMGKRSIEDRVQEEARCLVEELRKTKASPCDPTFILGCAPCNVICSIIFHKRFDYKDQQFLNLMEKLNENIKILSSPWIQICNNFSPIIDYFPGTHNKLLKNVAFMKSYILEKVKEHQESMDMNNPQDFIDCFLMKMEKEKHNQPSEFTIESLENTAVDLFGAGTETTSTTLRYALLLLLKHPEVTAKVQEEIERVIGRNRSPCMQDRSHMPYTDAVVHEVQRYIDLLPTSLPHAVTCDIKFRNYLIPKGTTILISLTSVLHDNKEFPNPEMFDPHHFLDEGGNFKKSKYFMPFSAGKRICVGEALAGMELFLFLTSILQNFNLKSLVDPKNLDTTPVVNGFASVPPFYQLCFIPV
# Cytochrome P450 2C19, sequence (P33261 whole entry): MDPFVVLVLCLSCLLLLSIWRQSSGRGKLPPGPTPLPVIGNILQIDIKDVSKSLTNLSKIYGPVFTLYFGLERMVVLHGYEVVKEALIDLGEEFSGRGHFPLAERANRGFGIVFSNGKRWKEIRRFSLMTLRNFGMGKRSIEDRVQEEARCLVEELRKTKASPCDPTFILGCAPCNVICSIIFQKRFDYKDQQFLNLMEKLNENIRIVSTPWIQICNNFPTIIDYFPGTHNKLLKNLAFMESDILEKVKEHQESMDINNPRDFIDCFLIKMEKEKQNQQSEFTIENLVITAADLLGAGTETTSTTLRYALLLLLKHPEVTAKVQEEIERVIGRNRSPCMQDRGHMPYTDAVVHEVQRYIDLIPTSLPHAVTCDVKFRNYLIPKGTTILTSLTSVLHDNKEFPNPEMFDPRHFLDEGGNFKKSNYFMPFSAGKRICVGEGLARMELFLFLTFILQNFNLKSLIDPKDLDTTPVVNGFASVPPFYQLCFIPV
structure (smiles),measurement,setting,value
CCN(C(=O)COC(=O)CCCOc1ccc(Cl)cc1C)c1c(N)n(Cc2ccccc2)c(=O)[nH]c1=O,AC50,HeLa,43.7 µM (active)
Cc1nc([N+](=O)[O-])cn1CCC#N,EC50,[1],> 55.7 µM (not active)
same,EC50,[2],> 55.7 µM (not active)
COc1cccc(C(c2cc3c(cc2O)OCO3)N2CCOCC2)c1OC (stereo not given),IC50,[3],6.43 µM (not active)
CC(C)(C)N1CCC1CN (stereo not given),EC50,[1],> 55.7 µM (not active)
same,EC50,[2],> 55.7 µM (not active)
O=C1OC2(c3ccc(O)cc3Oc3cc(O)ccc32)c2ccccc21 [FLUORESCEIN],IC50,[3],4.89 µM (not active)
CCOc1ccc(C(C)NC(=O)c2ccccc2OCc2c(C)noc2C)cc1OCC (stereo not given),AC50,HeLa,113 µM (active)
O=C(CCN1C(=O)/C(=C/c2cccc(Br)c2)SC1=S)NNC(=O)c1cccnc1,AC50,Cytochrome P450 2C9,0.447 µM (inconclusive)
same,AC50,Cytochrome P450 2C19,1.58 µM (inconclusive)
same,EC50,[4],83.8 µM (not active)
CC1CCN(CC(CS(=O)(=O)c2ccc([N+](=O)[O-])cc2)N2CCC(C)CC2)CC1 (stereo not given),CC50,[5],7.41 µM (active)
same,AC50,[6],> 70 µM (inactive)
same,AC50,[7],6.62 µM (active)
same,AC50,[8],1.59 µM (active)
same,AC50,[9],> 70 µM (inactive)
N#C/C(=C(/O)CCl)c1nc2c(s1)CCc1ccccc1-2,EC50,[10],> 150 µM (not active)
same,IC50,Hexokinase HKDC1,17.4 µM (active)
same,EC50,Streptococcus,> 150 µM (not active)
same,EC50,Streptokinase A,> 150 µM (not active)
